Laboratory results reported in US7893077B2, “Bisaryl-sulfonamides” (Amgen Inc., priority 2004, dated 2011).

Target: T1, PPARγ (Homo sapiens, UniProt P37231)
T1 construct: made in house
T1 sequence (P37231 1-505): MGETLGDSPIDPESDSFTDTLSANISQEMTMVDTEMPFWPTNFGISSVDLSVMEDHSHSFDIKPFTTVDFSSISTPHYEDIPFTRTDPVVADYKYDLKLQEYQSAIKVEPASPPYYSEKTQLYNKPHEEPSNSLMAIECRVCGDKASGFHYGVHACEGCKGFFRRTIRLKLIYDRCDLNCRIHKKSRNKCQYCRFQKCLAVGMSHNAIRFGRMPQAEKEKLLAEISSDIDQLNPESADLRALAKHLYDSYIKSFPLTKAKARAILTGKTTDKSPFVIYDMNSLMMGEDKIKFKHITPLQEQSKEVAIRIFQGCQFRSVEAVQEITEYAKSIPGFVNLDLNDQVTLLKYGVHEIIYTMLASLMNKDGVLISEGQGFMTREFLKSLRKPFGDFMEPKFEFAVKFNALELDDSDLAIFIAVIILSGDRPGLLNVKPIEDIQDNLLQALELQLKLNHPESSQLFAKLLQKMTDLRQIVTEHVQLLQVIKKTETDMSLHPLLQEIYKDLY
Test: PPARγ ligand binding assay utilizing [3H]-BRL 49653 as the radioligand (filtration)
Settings: concentration required to reduce by 50% the specific binding of [3H]-BRL 49653
Description: The compounds of the present invention can be evaluated for modulation of the PPARγ receptor using assays such as those described in Jiang, et al., Nature 391:82-86 (1998), Ricote, et al., Nature 391:79-82 (1998) and Lehmann, et al., J. Biol. Chem. 270(12): 12953-12956 (1995). Alternatively, the compounds can be evaluated for their ability to displace radiolabeled BRL 49653 from a PPARγ-GST fusion protein as follows:
PPARγ-GST fusion protein (prepared according to standard procedures), [^3H]-BRL 49653 having 50 Ci/mmol specific activity, Polyfiltronics Unifilter 350 filtration plate and glutathione-Sepharose® beads (from Pharmacia: washed twice with 10× binding buffer in which BSA and DTI can be left out).
Binding buffer (10 mM Tris-HCl, pH 8.0, 50 mM KCl, 10 mM DTT, 0.02% BSA and 0.0 1% NP-40) is added in 80-μL amounts to the wells of the filtration plate. The test compound is then added in 10 μL of DMSO. The PPARγ-GST fusion protein and radiolabeled BRL compound are premixed in binding buffer containing 10 mM DTT and added in 10-μL amounts to the wells of the plate to provide final concentrations of 1 µg/well of PPARγ-GST fusion protein and 10 nM [^3H]-BRL 49653 compound. The plate is incubated for 15 min. Glutathione-agarose bead is added in 50 μL of binding buffer, and the plate is vigorously shaken for one hour. The plate is washed four times with 200 μL/well of binding buffer (without BSA and DTT). The bottom of the plate is sealed and 200 μL/well of scintillation cocktail is added. The top of the plate is then sealed and the radioactivity is determined.
IC50 values are defined as the concentration of test compounds required to reduce by 50% the specific binding of [^3H]-BRL 49653 and are represented by (+)<30 μM; (++)<10 μM; (+++)<1 μM.

| IC50 | SMILES |
| --- | --- |
| < 1000 nM | COC(=O)c1nc(NS(=O)(=O)c2ccc(Cl)cc2Cl)ccc1Sc1ccc(S(=O)(=O)N2CCOCC2)cc1 [Compound 76, 6-(2,4-Dichloro-benzenesulfonylamino)-3-[4-(morpholine-4-sulfonyl)-phenylsulfanyl]-pyridine-2-carboxylic acid methyl ester] |
| < 1000 nM | Cc1nc(NS(=O)(=O)c2ccc(Cl)cc2Cl)ccc1Sc1ccc(S(=O)(=O)N2CCOCC2)cc1 [Compound 77, 2,4-Dichloro-N-{6-methyl-5-[4-(morpholine-4-sulfonyl) -phenylsulfanyl]-pyridin-2-yl}-benzenesulfonamide] |
| < 1000 nM | CCCC(=O)c1nc(NS(=O)(=O)c2ccc(Cl)cc2Cl)ccc1Sc1ccc(S(=O)(=O)N2CCOCC2)cc1 [Compound 78, N-{6-Butyryl-5-[4-(morpholine-4-sulfonyl)-phenylsulfanyl]-pyridin-2-yl}-2,4-dichloro-benzenesulfonamide] |
| < 1000 nM | O=C(c1nc(NS(=O)(=O)c2ccc(Cl)cc2Cl)ccc1Sc1ccc(S(=O)(=O)N2CCOCC2)cc1)C1CC1 [Compound 79, 2,4-Dichloro-N-{6-cyclopropanecarbonyl-5-[4-(morpholine-4-sulfonyl)-phenylsulfanyl]-pyridin-2-yl}-benzenesulfonamide] |
| < 1000 nM | CC(C)CC(=O)c1nc(NS(=O)(=O)c2ccc(Cl)cc2Cl)ccc1Sc1ccc(S(=O)(=O)N2CCOCC2)cc1 [Compound 80, 2,4-Dichloro-N-{6-(3-methyl-butyryl)-5-[4-(morpholine-4-sulfonyl)-phenylsulfanyl]-pyridin-2-yl}-benzenesulfonamide] |
| < 1000 nM | CCC(=O)c1nc(NS(=O)(=O)c2ccc(Cl)cc2Cl)ccc1Sc1ccc(S(=O)(=O)N2CCCCC2)cc1 [Compound 84, 2,4-Dichloro-N-{5-[4-(piperidine-1-sulfonyl)-phenylsulfanyl]-6-propionyl-pyridin-2-yl}-benzenesulfonamide] |
| < 1000 nM | CCC(=O)c1nc(NS(=O)(=O)c2ccc(Cl)cc2Cl)ccc1Sc1ccc(S(=O)(=O)N2CCOCC2)cc1 [Compound 86, 2,4-Dichloro-N-{5-[4-(morpholine-4-sulfonyl)-phenylsulfanyl]-6-propionyl-pyridin-2-yl}-benzenesulfonamide] |
| < 1000 nM | CCCC(=O)c1nc(NS(=O)(=O)c2ccc(Cl)cc2Cl)ccc1Sc1ccc(S(=O)(=O)N2CCCC2)cc1 [Compound 94, N-{6-Butyryl-5-[4-(pyrrolidine-1-sulfonyl)-phenylsulfanyl]-pyridin-2-yl}-2,4-dichloro-benzenesulfonamide] |
| < 1000 nM | CCC(=O)c1nc(NS(=O)(=O)c2ccc(Cl)cc2Cl)ccc1Sc1ccc(S(=O)(=O)N2CCCC2)cc1 [Compound 96, 2,4-Dichloro-N-{6-propionyl-5-[4-(pyrrolidine-1-sulfonyl) -phenylsulfanyl]-pyridin-2-yl}-benzenesulfonamide] |

Continued, compound first:

| SMILES | IC50 |
| --- | --- |
| Cc1cc(NS(=O)(=O)c2ccc(Cl)cc2Cl)ncc1Sc1ccc(S(=O)(=O)N2CCOCC2)cc1 [Compound 75, 2,4-Dichloro-N-{4-methyl-5-[4-(morpholine-4-sulfonyl) -phenylsulfanyl]-pyridin-2-yl}-benzenesulfonamide] | < 1000 nM |
| CCCC(=O)c1nc(NS(=O)(=O)c2ccc(C(F)(F)F)cc2Cl)ccc1Sc1ccc(S(=O)(=O)N2CCCCC2)cc1 [Compound 81, N-{6-Butyryl-5-[4-(piperidine-1-sulfonyl)-phenylsulfanyl]-pyridin-2-yl}-2-chloro-4-trifluoromethyl-benzenesulfonamide] | < 1000 nM |
| O=C(c1nc(NS(=O)(=O)c2ccc(Cl)cc2Cl)ccc1Sc1ccc(S(=O)(=O)N2CCCCC2)cc1)C1CC1 [Compound 82, 2,4-Dichloro-N-{6-cyclopropanecarbonyl-5-[4-(piperidine-1-sulfonyl)-phenylsulfanyl]-pyridin-2-yl}-benzenesulfonamide] | < 1000 nM |
| CC(C)CC(=O)c1nc(NS(=O)(=O)c2ccc(Cl)cc2Cl)ccc1Sc1ccc(S(=O)(=O)N2CCCCC2)cc1 [Compound 83, 2,4-Dichloro-N-{6-(3-methyl-butyryl)-5-[4-(piperidine-1-sulfonyl)-phenylsulfanyl]-pyridin-2-yl}-benzenesulfonamide] | < 1000 nM |
| CC(C)NC(=O)c1nc(NS(=O)(=O)c2ccc(Cl)cc2Cl)ccc1Sc1ccc(S(=O)(=O)N2CCCCC2)cc1 [Compound 85, 6-(2,4-Dichloro-benzenesulfonylamino)-3-[4-(piperidine-1-sulfonyl)-phenylsulfanyl]-pyridine-2-carboxylic acid isopropylamide] | < 1000 nM |
| CCCC(=O)c1nc(NS(=O)(=O)c2ccc(C(F)(F)F)cc2Cl)ccc1Sc1ccc(S(=O)(=O)N2CCOCC2)cc1 [Compound 87, N-{6-Butyryl-5-[4-(morpholine-4-sulfonyl)-phenylsulfanyl]-pyridin-2-yl}-2-chloro-4-trifluoromethyl-benzenesulfonamide] | < 1000 nM |
| O=C(c1nc(NS(=O)(=O)c2ccc(C(F)(F)F)cc2Cl)ccc1Sc1ccc(S(=O)(=O)N2CCOCC2)cc1)C1CC1 [Compound 88, 2-Chloro-N-{6-cyclopropanecarbonyl-5-[4-(morpholine-4-sulfonyl)-phenylsulfanyl]-pyridin-2-yl}-4-trifluoromethyl-benzenesulfonamide] | < 1000 nM |
| O=C(c1nc(NS(=O)(=O)c2ccc(C(F)(F)F)cc2Cl)ccc1Sc1ccc(S(=O)(=O)N2CCCCC2)cc1)C1CC1 [Compound 89, 2-Chloro-N-{6-cyclopropanecarbonyl-5-[4-(piperidine-1-sulfonyl)-phenylsulfanyl]-pyridin-2-yl}-4-trifluoromethyl-benzenesulfonamide] | < 1000 nM |
| O=C(c1nc(NS(=O)(=O)c2ccc(Cl)cc2Cl)ccc1Sc1ccc(S(=O)(=O)N2CCCC2)cc1)C1CC1 [Compound 95, 2,4-Dichloro-N-{6-cyclopropanecarbonyl-5-[4-(pyrrolidine-1-sulfonyl)-phenylsulfanyl]-pyridin-2-yl}-benzenesulfonamide] | < 1000 nM |
| CCCC(=O)c1nc(NS(=O)(=O)c2ccc(C(F)(F)F)cc2Cl)ccc1Sc1ccc(S(=O)(=O)N2CCCC2)cc1 [Compound 97, N-{6-Butyryl-5-[4-(pyrrolidine-1-sulfonyl)-phenylsulfanyl]-pyridin-2-yl}-2-chloro-4-trifluoromethyl-benzenesulfonamide] | < 1000 nM |
| O=C(c1nc(NS(=O)(=O)c2ccc(C(F)(F)F)cc2Cl)ccc1Sc1ccc(S(=O)(=O)N2CCCC2)cc1)C1CC1 [Compound 98, 2-Chloro-N-{6-cyclopropanecarbonyl-5-[4-(pyrrolidine-1-sulfonyl)-phenylsulfanyl]-pyridin-2-yl}-4-trifluoromethyl-benzenesulfonamide] | < 1000 nM |
| CCCC(=O)c1nc(NS(=O)(=O)c2ccc(C(F)(F)F)cc2Cl)ccc1Sc1ccc(S(=O)(=O)N(CC)CC)cc1 [Compound 99, N-[6-Butyryl-5-(4-diethylsulfamoyl-phenylsulfanyl)-pyridin-2-yl]-2-chloro-4-trifluoromethyl-benzenesulfonamide] | < 1000 nM |
| CCN(CC)S(=O)(=O)c1ccc(Sc2ccc(NS(=O)(=O)c3ccc(C(F)(F)F)cc3Cl)nc2C(=O)C2CC2)cc1 [Compound 100, 2-Chloro-N-[6-cyclopropanecarbonyl-5-(4-diethylsulfamoyl-phenylsulfanyl)-pyridin-2-yl]-4-trifluoromethyl-benzenesulfonamide] | < 1000 nM |
| CCCC(=O)c1nc(NS(=O)(=O)c2ccc(C(F)(F)F)cc2Cl)ccc1Sc1ccc(S(=O)(=O)C2CCOCC2)cc1 [Compound 101, N-{6-Butyryl-5-[4-(tetrahydro-pyran-4-sulfonyl)-phenylsulfanyl]-pyridin-2-yl}-2-chloro-4-trifluoromethyl-benzenesulfonamide] | < 1000 nM |
| O=C(c1nc(NS(=O)(=O)c2ccc(C(F)(F)F)cc2Cl)ccc1Sc1ccc(S(=O)(=O)C2CCOCC2)cc1)C1CC1 [Compound 102, 2-Chloro-N-{6-cyclopropanecarbonyl-5-[4-(tetrahydro-pyran-4-sulfonyl)-phenylsulfanyl]-pyridin-2-yl}-4-trifluoromethyl-benzenesulfonamide] | < 1000 nM |
